Tests used:
[1] = test system: Echinochloa oryzoides (Ard.) Fritsch.; test: Preemergence weed control under flooded paddy conditions, ECHORC (Watergrass (Calif.)); assay type: in vivo; details: flooded paddy; for ECHORC: herbicidal effect rating 0-9, three to four weeks after treatment; as to herbicidal effect rating, ECHORC: meaning of each grade not given here
Cyperus iria = test: Preemergence weed control under flooded paddy conditions, CYPIR (Rice Flatsedge); assay type: in vivo; details: flooded paddy; for CYPIR: herbicidal effect rating 0-9, three to four weeks after treatment; as to herbicidal effect rating, CYPIR: meaning of each grade not given here
[2] = test system: Cyperus serotinus, Rottb.; test: Preemergence weed control under flooded paddy conditions, CYPSE (Flatsedge); assay type: in vivo; details: for CYPSE: herbicidal effect rating 0-9, three to four weeks after treatment; as to herbicidal effect rating, CYPSE: meaning of each grade not given here
[3] = test system: Monochoria vaginalis, Presl.; test: Preemergence weed control under flooded paddy conditions, MOOVA (Monochoria); assay type: in vivo; details: flooded paddy; for MOOVA: herbicidal effect rating 0-9, three to four weeks after treatment; as to herbicidal effect rating, MOOVA: meaning of each grade not given here
Sagittaria pygmaea, L. = test: Preemergence weed control under flooded paddy conditions, SAGPY (Arrowhead (Pygmaea)); assay type: in vivo; details: flooded paddy; for SAGPY: herbicidal effect rating 0-9, three to four weeks after treatment; as to herbicidal effect rating, SAGPY: meaning of each grade not given here
[4] = test system: Oryza sativa, (L.) Tebonnet; details: in vivo; as to herbicidal effect rating ORYSAT: meaning of each grade not given here
[5] = Rate 0.0320 kg/ha, preemergence, rated three to four weeks after treatment
[6] = Rate 0.0620 kg/ha, preemergence, rated three to four weeks after treatment
[7] = Rate 0.1250 kg/ha, preemergence, rated three to four weeks after treatment
[8] = Rate 0.2500 kg/ha, preemergence, rated three to four weeks after treatment
[9] = Rate 0.2500 kg/ha, preemergence weeds, rated three to four weeks after treatment
[10] = 0.0320 kg/ha, preemergence weeds
[11] = 0.0620 kg/ha, preemergence weeds
[12] = 0.1250 kg/ha, preemergence weeds
[13] = 0.2500 kg/ha, preemergence weeds
[14] = Rate 0.0320 kg/ha, preemergence, rated 3-4 weeks after treatment
[15] = Rate 0.0620 kg/ha, preemergence, rated 3-4 weeks after treatment
[16] = Rate 0.1250 kg/ha, preemergence, rated 3-4 weeks after treatment
[17] = Rate 0.2500 kg/ha, preemergence, rated 3-4 weeks after treatment
[18] = Rate 0.5000 kg/ha, preemergence, rated 3-4 weeks after treatment

Cn1c(C(F)(F)F)cc(=O)n(-c2ccc3snc(CC=NO)c3c2)c1=O [Example 266, 1,2-Benzisothiazole-3-acetaldehyde, 5-[3,6-dihydro-3-methyl-2,6-dioxo-4-(trifluoromethyl)-1(2H)-pyrimidinyl]-, 3-oxime, (E)- and (Z)-]
ECHORC herbicidal effect rating [1, 5]: 0.0
ECHORC herbicidal effect rating [1, 6]: 0.0
ECHORC herbicidal effect rating [1, 7]: 0.0
ECHORC herbicidal effect rating [1, 8]: 0.0
CYPIR herbicidal effect rating (Cyperus iria; [5]): 5.0
CYPIR herbicidal effect rating (Cyperus iria; [6]): 5.0
CYPIR herbicidal effect rating (Cyperus iria; [7]): 5.0
CYPIR herbicidal effect rating (Cyperus iria; [8]): 9.0
CYPSE herbicidal effect rating [2, 5]: 0.0
CYPSE herbicidal effect rating [2, 6]: 0.0
CYPSE herbicidal effect rating [2, 7]: 0.0
CYPSE herbicidal effect rating [2, 8]: 3.0
MOOVA herbicidal effect rating [3, 5]: 9.0
MOOVA herbicidal effect rating [3, 6]: 9.0
MOOVA herbicidal effect rating [3, 7]: 9.0
MOOVA herbicidal effect rating [3, 8]: 9.0
SAGPY herbicidal effect rating (Sagittaria pygmaea, L.; [5]): 0.0
SAGPY herbicidal effect rating (Sagittaria pygmaea, L.; [6]): 0.0
SAGPY herbicidal effect rating (Sagittaria pygmaea, L.; [7]): 0.0
SAGPY herbicidal effect rating (Sagittaria pygmaea, L.; [8]): 0.0
ORYSAT herbicidal effect rating [4]: 0.0

Cn1c(C(F)(F)F)cc(=O)n(-c2ccc3snc(CNS(C)(=O)=O)c3c2)c1=O [Example 305]
herbicidal effect rating, ECHORC [1, 9]: 0.0
herbicidal effect rating, CYPIR (Cyperus iria; [9]): 0.0
herbicidal effect rating, CYPSE [2, 9]: 0.0
herbicidal effect rating, MOOVA [3, 9]: 0.0
herbicidal effect rating, SAGPY (Sagittaria pygmaea, L.; [9]): 0.0
herbicidal effect rating ORYSAT [4]: 0.0

COC(OC)c1nsc2ccc(-n3c(=O)cc(C(F)(F)F)n(C)c3=O)cc12 [Example 453, 1,2-Benzisothiazole-3-carboxaldehyde, 5-[3,6-dihydro-3-methyl-2,6-dioxo-4-(trifluoromethyl)-1(2H)-pyrimidinyl]-, 3-(dimethylacetal)]
ECHORC [1, 10]: 9.0
ECHORC [1, 11]: 9.0
ECHORC [1, 12]: 9.0
ECHORC [1, 13]: 9.0
CYPIR (Cyperus iria; [10]): 9.0
CYPIR (Cyperus iria; [11]): 9.0
CYPIR (Cyperus iria; [12]): 9.0
CYPIR (Cyperus iria; [13]): 9.0
CYPSE [2, 10]: 9.0
CYPSE [2, 11]: 9.0
CYPSE [2, 12]: 9.0
CYPSE [2, 13]: 9.0
MOOVA [3, 10]: 9.0
MOOVA [3, 11]: 9.0
MOOVA [3, 12]: 9.0
MOOVA [3, 13]: 9.0
SAGPY (Sagittaria pygmaea, L.; [10]): 9.0
SAGPY (Sagittaria pygmaea, L.; [11]): 9.0
SAGPY (Sagittaria pygmaea, L.; [12]): 9.0
SAGPY (Sagittaria pygmaea, L.; [13]): 9.0
ORYSAT [4]: 9.0

Cc1ccc(OCC(=O)c2ccccc2)c(-c2nsc3ccc(-n4c(=O)cc(C(F)(F)F)n(C)c4=O)cc23)c1 [Example 537, 2,4(1H,3H)-Pyrimidinedione, 1-methyl-3-{3-[6-(phenacyloxy)-m-tolyl]-1,2-benzisothiazol-5-yl}-6-(trifluoromethyl)-]
herbicidal effect rating, ECHORC [1, 14]: 3.4
herbicidal effect rating, ECHORC [1, 15]: 4.4
herbicidal effect rating, ECHORC [1, 16]: 5.0
herbicidal effect rating, ECHORC [1, 17]: 9.0
herbicidal effect rating, ECHORC [1, 18]: 9.0
herbicidal effect rating, CYPIR (Cyperus iria; [14]): 0.0
herbicidal effect rating, CYPIR (Cyperus iria; [15]): 0.0
herbicidal effect rating, CYPIR (Cyperus iria; [16]): 1.0
herbicidal effect rating, CYPIR (Cyperus iria; [17]): 4.0
herbicidal effect rating, CYPIR (Cyperus iria; [18]): 9.0
herbicidal effect rating, CYPSE [2, 14]: 0.0
herbicidal effect rating, CYPSE [2, 15]: 0.0
herbicidal effect rating, CYPSE [2, 16]: 0.0
herbicidal effect rating, CYPSE [2, 17]: 0.0
herbicidal effect rating, CYPSE [2, 18]: 0.0
herbicidal effect rating, MOOVA [3, 14]: 9.0
herbicidal effect rating, MOOVA [3, 15]: 9.0
herbicidal effect rating, MOOVA [3, 16]: 9.0
herbicidal effect rating, MOOVA [3, 17]: 9.0
herbicidal effect rating, MOOVA [3, 18]: 9.0
herbicidal effect rating, SAGPY (Sagittaria pygmaea, L.; [14]): 0.0
herbicidal effect rating, SAGPY (Sagittaria pygmaea, L.; [15]): 0.0
herbicidal effect rating, SAGPY (Sagittaria pygmaea, L.; [16]): 0.0
herbicidal effect rating, SAGPY (Sagittaria pygmaea, L.; [17]): 0.0
herbicidal effect rating, SAGPY (Sagittaria pygmaea, L.; [18]): 0.0
herbicidal effect rating ORYSAT [4]: 0.0
